Experimental data as given in PubChem BioAssay (NCI).
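Cultured in 96-well plates, cells were exposed to test compound for 48 hours across five concentrations. Here, GI50 denotes the concentration required for 50% inhibition of growth. TGI: concentration producing complete growth inhibition.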

Key:
Assay in all cases: NCI tumour cell line growth inhibition, 48 h
[1] = test system: DLD-1 colon
[2] = test system: HOP-18 NSCLC
[3] = test system: KM20L2 colon
[4] = test system: MDA-N
[5] = test system: BT-549 breast
[6] = test system: T-47D breast
[7] = test system: MDA-MB-435
[8] = test system: PC-3 prostate
[9] = test system: DU-145 prostate

| SMILES | TGI [1] | TGI [2] | TGI [3] | further results |
| --- | --- | --- | --- | --- |
| CC1OC(OCC2OC(Oc3c(-c4ccc(O)cc4)oc4cc(O)cc(O)c4c3=O)C(OC3OC(C)C(O)C(O)C3O)C(O)C2O)C(O)C(O)C1O (configuration not stated) | > 100 µM | > 100 µM | > 100 µM | – |
| CN(C)c1ccc([O-])cc1.CN(C)c1ccc([O-])cc1.CN(C)c1ccc([O-])cc1.CN(C)c1ccc([O-])cc1.[Ti+4] | > 100 µM | > 100 µM | > 100 µM | GI50 [1]: 91 µM; GI50 [2]: > 100 µM; GI50 [3]: > 100 µM |
| O=C1C=CC=CC2CC=C[C@@H](O)C12 (some centres not stated) | > 100 µM | – | 56 µM | – |
| O=C(O)COc1ccc(O)c2c1C(=O)CCCC2=O | > 100 µM | – | > 100 µM | – |
| COc1cc(/C=C\c2ccccc2)cc(OC)c1OC | > 78.2 µM | > 100 µM | 3.31 µM | – |
| C=C(CCCCCCCCC)CC(=O)SCCNC(=O)CCNC(=O)C(O)C(C)(C)COP(=O)(O)OP(=O)(O)OCC1OC(n2cnc3c(N)ncnc32)C(O)C1OP(=O)(O)O (configuration not stated) | > 100 µM | > 100 µM | > 100 µM | TGI [4]: > 76.6 µM; TGI [5]: > 100 µM; TGI [6]: > 100 µM; TGI [7]: 67.7 µM; TGI [8]: > 100 µM; TGI [9]: > 100 µM |
| O=C([CH-]C(=O)c1ccccc1)c1ccccc1.O=C([CH-]C(=O)c1ccccc1)c1ccccc1.O=C([CH-]C(=O)c1ccccc1)c1ccccc1.[Nd+3].[OH3+] | – | – | 48 µM | GI50 [3]: 10.9 µM |
| NCCCOCC(=O)O | – | – | > 100 µM | – |
| CC1CCP(=O)(c2ccccc2)c2ccccc21 (configuration not stated) | > 100 µM | > 100 µM | > 100 µM | – |
| CC1CC#CCOC(=O)CCCC1=O (configuration not stated) | > 100 µM | > 100 µM | > 100 µM | – |
| O=C(Nc1cccs1)c1c(O)[nH]c(=S)[nH]c1=O | > 100 µM | > 100 µM | > 100 µM | – |
| COC(=O)C1C(O)CC(c2ccccn2)N(Cc2ccccc2)C1c1ccccn1 (configuration not stated) | > 100 µM | > 100 µM | > 100 µM | – |
| OC1c2ccccc2C2(O)C1C(c1ccccc1)C(c1ccccc1)C2(O)c1ccccc1 (configuration not stated) | – | 34 µM | 22.5 µM | – |
| Oc1cc(O)c(Oc2cccc(O)c2O)c(O)c1 | – | > 100 µM | – | – |
| O=Cc1ccccc1OCCOc1cc(OCCOc2ccccc2C=O)c(OCCOc2ccccc2C=O)cc1OCCOc1ccccc1C=O | > 100 µM | > 100 µM | > 100 µM | – |
| CCOC(=O)C1(Br)C(c2ccccc2)NC(=O)NC1(C)Br (configuration not stated) | > 100 µM | > 100 µM | > 100 µM | GI50 [5]: 14 µM; TGI [5]: 65.9 µM; GI50 [6]: 47.3 µM; TGI [6]: > 100 µM; GI50 [7]: 20.5 µM; TGI [7]: 57.3 µM; GI50 [8]: 22.3 µM; TGI [8]: > 100 µM; GI50 [9]: 44.5 µM; TGI [9]: > 100 µM |
| CC1CC2CC(=O)CC3(C1)C2CCCN3CCCO (configuration not stated) | > 100 µM | > 100 µM | – | – |
| COC1=CC(=O)C2C(C1=O)[C@@H]1c3ccccc3C[C@H]21 (some centres not stated) | > 100 µM | – | – | – |
| OCCCOC(c1ccccc1)(c1ccccc1)c1ccccc1 | > 100 µM | – | > 100 µM | – |
| C1C[OH+]CC[OH+]CCNCC[OH+]CC[OH+]CCN1.[Cl-].[Pt+4] | > 100 µM | > 100 µM | > 100 µM | GI50 [1]: > 100 µM; GI50 [2]: > 100 µM; GI50 [3]: > 100 µM |
| COC[C@@H](N=CN1CCc2cc(OC)c(OC)cc2[C@@H]1C)C(C)(C)C | > 100 µM | > 100 µM | > 100 µM | – |
| COc1ccccc1/C=C1\CCC(CCN(C)C)(C2=CCCC2)C1=O (configuration not stated) | 38.5 µM | 85.3 µM | 15.7 µM | – |
| O=C(O)[C@@H]1[C@H](C(=O)O)[C@H](C(=O)O)C[C@@H]1C(=O)O | – | – | – | TGI [4]: > 100 µM; TGI [5]: > 100 µM; TGI [6]: > 100 µM; TGI [7]: > 100 µM; TGI [8]: > 100 µM; TGI [9]: > 100 µM |
